According to a melting point compilation (Tetko et al.; mined from patent text by program, amines drawn as free bases though some values may be those of a salt):

SMILES | melting point
COC(=O)C(C)(C)Cc1c(SC(C)(C)C)c2cc(O)ccc2n1Cc1ccc(Cl)cc1 | 170 to 171 °C
CC(=O)c1ccc(OCCCCCCCc2cc(C)no2)cc1 | 69 to 71 °C
CN(CCO)C(=O)Nc1ccc2c(c1Cl)C(c1ccccc1F)=NCC(=O)N2C | 218 to 220 °C
ClC(Cl)(Cl)C1NCCO1 (stereo not given) | 73 °C
N#Cc1ccc(C(=O)N=C=S)cc1 | 87.5 to 88.5 °C
COc1ccc(F)cc1OCCCl | 35 to 38 °C
O=C(CCCCCCNC(=O)c1cn2c3c(cccc13)CCC2)NO | 205 to 206 °C
N#Cc1c(OCCO)cccc1[N+](=O)[O-] | 140 to 142 °C
FC(F)(F)C(F)(F)C(F)(F)C(F)(F)C(F)(F)C(F)(F)C(F)(F)C(F)(F)C(F)(F)Br | 30 °C
CNc1cc(CCN)ccc1OC | 90 to 92 °C
COC(=O)c1ccc(C(C(N)=O)C(C)c2cc(Cl)ccc2N2CCCC(C)C2)cc1 (stereo not given) | 160 to 162 °C
CCn1nc(C#N)cc1-c1cn(C(C)C)c2cc(NS(C)(=O)=O)ccc12 | 144 to 145 °C
C=CCN(CC=C)c1nc(NC(=O)CCCC(=O)OC)n2oc(=O)nc2n1 | 164 to 165 °C
O=C(O)COc1cccc2c(CCS(=O)(=O)C(c3ccccc3)c3ccccc3)coc12 | 177 to 179 °C
CCCCN=C(CS(C)=O)c1ccccc1O (stereo not given) | 128 to 129 °C
CCCn1c(=O)c2[nH]c(/C=C/c3ccc(O)c(OC)c3)nc2n(CCC)c1=O | 243 to 245 °C
CCCN(CCC)C(Cc1cccc(OC)c1N(C(C)=O)C(C)=O)(C(=O)OCC)C(=O)OCC | 72 to 75 °C
Cc1nc2n(c(=O)c1CCN1CCC(C(=NO)c3ccc(F)cc3F)CC1)CCCC2 | 180 to 183 °C
CCOc1cc(CO)ccc1OCc1nc(-c2ccco2)oc1C | 141 to 142 °C
N#Cc1[nH]c(-c2c(Cl)cc(C(F)(F)F)cc2Cl)nc1Br | 270 to 272 °C
COc1ncnc2cc(Br)sc12 | 111 to 113 °C
CCc1nc2cc(NC)c(Cl)cc2n1-c1ccc(CCNC(=O)NS(=O)(=O)c2ccc(C)cc2)cc1 | 95 to 100 °C
CCCCCCCC(=O)NC(=O)OCc1nc(C(C)C)c(Sc2cc(Cl)cc(Cl)c2)n1Cc1ccncc1 | 139 to 141 °C
CCN(CC)Cc1nc2cc(OC)c(OC)cc2c(-c2ccc(OC)c(OC)c2)c1C(C)=O | 146 to 148 °C
CCC(=O)NCCc1cnn2ccc3occc3c12 | 104 to 106 °C
COc1c(C)cc(-c2cc(-c3cccnc3)c(N3CCOCC3)s2)nc1C | 139 to 140 °C
COC(=O)c1ccc(NC(C)=O)c([N+](=O)[O-])c1 | 123 to 124 °C

SMILES | melting point
COc1ccc(C2=NN(Cc3cccc(C(=O)NC4CCCC4)c3)C(=O)CC2)cc1OC | 179 °C
CC(C)CCNc1ccccc1NCC12CC3CC(CC(C3)C1)C2 | 64 to 65 °C
Cn1c(C(F)(F)F)cc(=O)n(-c2cc(OCC(N)=O)c(Cl)cc2F)c1=O | 104 to 106 °C
CCc1nn2ccc3oc(C)cc3c2c1CC#N | 156 to 157 °C
COCc1cnc2c([N+](=O)[O-])cc(C)cc2c1Cl | 107 to 111 °C
Nc1c(F)c(N2CC[C@@H](C3(NCCO)CC3)C2)c(F)c2c1c(=O)c(C(=O)O)cn2[C@@H]1C[C@@H]1F | 198 to 200 °C
CSC1=CC2=CN(O)NN2C(Cl)=N1 | 256 to 257 °C
CCc1nc2c(N)nc3cc(OCCNC(=O)NC(C)C)ccc3c2n1CC1CCOCC1 | 223 to 225 °C
CCCCCCCCOc1ccc(-c2ccc(C3CCC(CCC)C3)cc2)cc1 (stereo not given) | 84 °C
CN(C)CC1=NC(O)(CCl)CS1 (stereo not given) | 90 to 92 °C
O=[N+]([O-])c1cc(F)cc2c1OCCC2 | 48 to 50 °C
CC(C)=CCOc1ccc(C(=O)C=Cc2ccc(C(F)(F)F)cc2)c(O)c1 | 122 to 123 °C
COc1cc(Nc2nccc(-c3ccc(N4CCNC(CCO)C4)nc3)n2)cc(OC)c1OC (stereo not given) | 150 to 151 °C
Brc1cc(Br)cc(Cc2cccnc2)c1 | 70 to 72 °C
C=C(CC(Cl)(Cl)Cl)c1nc(Cl)ccc1Cl | 71 to 74 °C
CCOC(=O)CCCNC(=O)Cn1c(-c2ccc(Cl)cc2)nc2cccnc21 | 169 to 171 °C
COc1c(N2CCCC2)c(F)cc2c(=O)c(C(=O)O)cn(C3CC3)c12 | 257 to 258 °C
CSc1ncc(S(=O)(=O)NC(=O)NC(C)C)c(Nc2cccc(C)c2)n1 | 160 °C
Cc1cccc(-c2cc(C(F)(F)F)n3ncc(C#N)c3n2)c1 | 202 °C
CC1=C(C)CC(C(=O)O)OC1 (stereo not given) | 82 to 84 °C
CCOC(=O)c1ccc(C#CC(O)c2cc(C(C)(C)C)cc(C(C)(C)C)c2OC)cc1 (stereo not given) | 101 to 103 °C
Cc1cc2c(c(C(O)=S)c1)OCCO2 | 181 to 183 °C
Nc1nc(N)c2c(n1)CCC(Cc1cc(Cl)cc(Cl)c1)C2 (stereo not given) | > 200 °C
C=C(C)COc1cc(C)c(NC(C)=O)cc1C | 128 to 132 °C
CCC(Oc1cc(C)ccc1C)C(=O)OC1CC(O)C=C2C=CC(C)C(CCC3CC(O)CC(=O)O3)C21 (mixture of isomers) | 138 to 140 °C
CCCCCCCCCCCCCCCCOc1cc(OC)c([N+](=O)[O-])cc1OC | 71 °C
O=C(CC1CCCCC1)Nc1c(Cl)ccc2nc(N3CC[C@@H](O)C3)ccc12 | 219 to 221 °C

Now from value to compound:

melting point | SMILES
111 to 113 °C | c1ccc(Nc2ccncc2Oc2ccccc2)cc1
147 to 150 °C | Nc1ccccc1C(=O)Nc1cccc2cc(Br)cnc12
92 to 93 °C | c1ccc(CN(Cc2ccccc2)c2c(-c3ccccc3)sc3ccccc23)cc1
185 to 186 °C | O=C1OCCN1CCN1C(=O)C2(COc3cc4c(cc32)CCO4)c2ccccc21 (stereo not given)
217 to 218 °C | Cc1ccc(-c2ccc3c(c2)C=C(C(=O)Nc2ccc(CN4CCN(C(c5ccccc5)c5ccccc5)CC4)cc2)CC3)cc1
96 to 97 °C | CC(C)=CCOc1ccc(C(=O)C=Cc2ccc(F)cc2)c(O)c1
72 to 74 °C | COC(=O)C=C(Nc1cc(CCO)c([N+](=O)[O-])cc1OCc1ccccc1)C(F)(F)F
149 °C | CCOC(=O)CC(NC(=O)c1cccc(NC(=O)c2cnc(NC(=N)N)s2)c1)c1ccccc1 (racemic)
122 °C | COCN(C(=O)Nc1ccc(Cl)cc1)C(=O)c1c(Cl)cccc1Cl
133 to 135 °C | COc1ccccc1-c1ccc(C(=O)N2Cc3ccc(C(=O)O)n3Cc3ccccc32)cc1C
> 260 °C | Cn1cccc1C(=O)NCc1cccc2c1C(=O)N(C1CCC(=O)NC1=O)C2=O (stereo not given)
187 to 188 °C | CN(C)C=C(C#N)C(=O)c1c[nH]c2ccccc12
> 300 °C | O=c1nc(-c2ccc3c(c2)OCCO3)c2ccc3c(c2[nH]1)OCO3
295 °C | CC(=O)Nc1cccc(Oc2c(N)cc(C(=O)O)cc2S(N)(=O)=O)c1
170 to 173 °C | O=C1C=CCC(c2ccccc2)(c2ccccc2)O1
111 to 113 °C | COC(=O)Nc1ccccc1CSc1ncc(C(F)(F)F)cc1Cl
124 to 126 °C | O=C(c1ccccc1)c1cc([N+](=O)[O-])ccc1OCCO
123 to 124 °C | CC(C)(NCc1ccc(Oc2ccc3c(c2)OCO3)cc1)C(N)=O
84 to 87 °C | O=C1N(CC(F)(F)F)C(=NCc2ccc(OC(F)(F)F)cc2)SCN1c1ccccc1
193 to 194 °C | COC(=O)c1[nH]c2c(C)ccc(C)c2c1-c1nc2ccccc2s1
229 to 233 °C | CC(=O)Oc1cccc2sc(-c3ccc(C(=O)O)cc3)nc12
148 to 149 °C | CCn1nc(-c2ccccc2)c(C(C)=O)c(Nc2ccc(Br)c3cccnc23)c1=O
165 to 167 °C | COC(=O)c1ccc(-c2nc3c(OC)cccc3s2)cc1

melting point | SMILES
105 to 106 °C | CC(C)n1c(=O)c2ccccc2n(SC(Cl)(Cl)Cl)c1=O
129 to 131 °C | COc1cc(C(C)=O)ccc1OCCN1CCC(C(c2ccc(F)cc2)c2ccc(F)cc2)CC1
265 to 270 °C | O=C1c2cc3c(cc2-c2c1c(Cl)nc1ccccc21)OCO3
96 °C | O=C(c1ccc(F)cc1)c1ccc(SCc2ccccc2)cc1
139 °C | O=C(Nc1cc2ccccc2cn1)c1nccnc1NCc1ccncc1
135 to 138 °C | O=C(Nc1ccc2ccccc2n1)c1ccc(COc2ccc3c(c2)CCC(CCN2CCCCC2)C3)cc1 (stereo not given)
113 to 114 °C | O=C(c1ccccc1CBr)c1ccccc1CBr
224 to 226 °C | O=C(Nc1cccc(-c2ccnc3c(C(=O)c4cccs4)cnn23)c1)c1ccc(-n2cccc2)cc1
151 °C | COC(=O)C(c1ccccc1)C1CCN(c2ccc(NC(=O)c3ccccc3-c3ccc(C(F)(F)F)cc3)cc2)CC1 (stereo not given)
131 to 133 °C | CCOC(=O)c1cccc(C2COc3cc(O)c(O)cc3C2)c1 (stereo not given)
157 to 158 °C | N=c1cc(NC(=S)Nc2ccccc2)nc2n1CCCS2
310 to 312 °C | O=c1[nH]c2ccccc2c2c(CCO)n(-c3ccccc3)nc12
197 to 198 °C | Cc1nccn1-c1nc(-c2ccc(Cl)cc2)c(CCCN2C(=O)CNC2=O)o1
173 to 176 °C | COCCC1(c2ccc(O)cc2)N=CC=N1
77 to 80 °C | O=Cc1ccc2c(c1)CC(Cc1ccccc1)O2 (stereo not given)
184 to 186 °C | O=C(O)Cn1c(=O)c2ccccc2n(CCCCN2CCC(OC(c3ccccc3)c3ccccc3)CC2)c1=O
217 to 225 °C | N#Cc1ccc2ccc(=O)oc2c1
142 °C | Clc1ccc(-c2ncoc2-c2ccncc2)cc1Cl
> 260 °C | CC(C)[C@H](NC(=O)/C=C/c1nccs1)C(=O)N[C@@H](Cc1ccccc1)[C@@H](O)[C@H](O)[C@H](Cc1ccccc1)NC(=O)[C@@H](NC(=O)/C=C/c1nccs1)C(C)C
143 to 145 °C | CCNc1cc(Oc2ccc(N)cc2)ncn1
235 to 238 °C | CCn1cc(C(=O)O)c(=O)c2ccc(-n3cccc3)cc21
175 to 177 °C | CCc1[nH]n(C2CCCC2)c2nc(Oc3ccccc3)nc(=O)c1-2
180 to 181 °C | Nc1nc(-c2cccc3ccccc23)cc2ccc(Cl)cc12
